Test results: PubChem BioAssay AID330 (DTP/NCI, 2004)
Where “and” joins values, the source holds several entries; their conditions need not be identical. Identical values can stand only once. Toxic doses and inconclusive results are not listed. The calls were made as follows: active = survival T/C of 150% or more; inactive = T/C below 125% in these data.

System: P388 leukemia ip, CD2F1 mice, survival T/C
Test: NCI In Vivo Anticancer Drug Screen. Data for tumor model P388 Leukemia (intraperitoneal) in CD2F1 (CDF1) mice
Details: endpoint: median survival time, higher = longer survival
How it was run: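 Mice carrying the transplanted tumor received test compound or vehicle. Survival was recorded in each group, and the value is the treated-group measurement divided by that of the vehicle-treated control group.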

[1] = dose: 240.0 mg/kg/injection, schedule: Q01DX005 (ip), vehicle: saline with Tween-80
[2] = dose: 25.0 mg/kg/injection, schedule: Q01DX009 (ip), vehicle: saline with Tween-80
[3] = dose: 50.0 mg/kg/injection, schedule: Q01DX009 (ip), vehicle: saline with Tween-80
[4] = dose: 100.0 mg/kg/injection, schedule: Q01DX009 (ip), vehicle: saline with Tween-80
[5] = dose: 200.0 mg/kg/injection, schedule: Q01DX009 (ip), vehicle: saline with Tween-80

Measured: T/C

CCOC(=O)c1ccc(NC(=O)Oc2ccc(C(=O)OC)cc2)cc1
inactive: dose: 60.0 mg/kg/injection, schedule: Q01DX005 (ip), vehicle: saline with Tween-80 103 % of control | dose: 120.0 mg/kg/injection, schedule: Q01DX005 (ip), vehicle: saline with Tween-80 100 % of control | [1] 103 % of control

CC1(CO)C(O)CCC2(C)C1CCC1CC3CC12CCC3(O)CO (centres undefined)
inactive: dose: 0.78 mg/kg/injection, schedule: Q03HX024 (ip), vehicle: Klucel (hydroxypropylcellulose) (HPC) 106 % of control | dose: 0.78 mg/kg/injection, schedule: Q03HX024 (oral), vehicle: Klucel (hydroxypropylcellulose) (HPC) 100 % of control | dose: 1.56 mg/kg/injection, schedule: Q03HX024 (ip), vehicle: Klucel (hydroxypropylcellulose) (HPC) 93 % of control | dose: 1.56 mg/kg/injection, schedule: Q03HX024 (oral), vehicle: Klucel (hydroxypropylcellulose) (HPC) 99 % of control | dose: 3.12 mg/kg/injection, schedule: Q03HX024 (ip), vehicle: Klucel (hydroxypropylcellulose) (HPC) 100 % of control | dose: 3.12 mg/kg/injection, schedule: Q03HX024 (oral), vehicle: Klucel (hydroxypropylcellulose) (HPC) 102 % of control | dose: 6.25 mg/kg/injection, schedule: Q03HX024 (ip), vehicle: Klucel (hydroxypropylcellulose) (HPC) 102 % of control | dose: 6.25 mg/kg/injection, schedule: Q03HX024 (oral), vehicle: Klucel (hydroxypropylcellulose) (HPC) 98 % of control | dose: 12.5 mg/kg/injection, schedule: Q01DX009 (ip), vehicle: Klucel (hydroxypropylcellulose) (HPC) 109 % of control and 113 % of control | dose: 12.5 mg/kg/injection, schedule: Q03HX024 (ip), vehicle: Klucel (hydroxypropylcellulose) (HPC) 106 % of control | dose: 12.5 mg/kg/injection, schedule: Q03HX024 (oral), vehicle: Klucel (hydroxypropylcellulose) (HPC) 100 % of control | dose: 25.0 mg/kg/injection, schedule: Q01DX009 (ip), vehicle: Klucel (hydroxypropylcellulose) (HPC) 114 % of control and 91 % of control | [2] 112 % of control | dose: 25.0 mg/kg/injection, schedule: Q03HX024 (ip), vehicle: Klucel (hydroxypropylcellulose) (HPC) 119 % of control | dose: 25.0 mg/kg/injection, schedule: Q03HX024 (oral), vehicle: Klucel (hydroxypropylcellulose) (HPC) 100 % of control | dose: 25.0 mg/kg/injection, schedule: Q04DX003 (ip), vehicle: Klucel (hydroxypropylcellulose) (HPC) 100 % of control | dose: 30.0 mg/kg/injection, schedule: Q01DX005 (iv), vehicle: saline with Tween-80 109 % of control | [3] 115 % of control | dose: 50.0 mg/kg/injection, schedule: Q03HX024 (ip), vehicle: Klucel (hydroxypropylcellulose) (HPC) 120 % of control | dose: 50.0 mg/kg/injection, schedule: Q03HX024 (oral), vehicle: Klucel (hydroxypropylcellulose) (HPC) 101 % of control | dose: 50.0 mg/kg/injection, schedule: Q04DX002 (ip), vehicle: Klucel (hydroxypropylcellulose) (HPC) 97 % of control | dose: 50.0 mg/kg/injection, schedule: Q04DX003 (ip), vehicle: Klucel (hydroxypropylcellulose) (HPC) 103 % of control | dose: 60.0 mg/kg/injection, schedule: Q01DX005 (iv), vehicle: saline with Tween-80 107 % of control | dose: 60.0 mg/kg/injection, schedule: Q01DX005 (oral), vehicle: saline with Tween-80 107 % of control | dose: 75.0 mg/kg/injection, schedule: Q04DX002 (ip), vehicle: Klucel (hydroxypropylcellulose) (HPC) 105 % of control | [4] 121 % of control | dose: 100.0 mg/kg/injection, schedule: Q03HX024 (oral), vehicle: Klucel (hydroxypropylcellulose) (HPC) 111 % of control | dose: 100.0 mg/kg/injection, schedule: Q04DX002 (ip), vehicle: Klucel (hydroxypropylcellulose) (HPC) 100 % of control | dose: 100.0 mg/kg/injection, schedule: Q04DX003 (ip), vehicle: Klucel (hydroxypropylcellulose) (HPC) 114 % of control | dose: 120.0 mg/kg/injection, schedule: Q01DX005 (iv), vehicle: saline with Tween-80 100 % of control | dose: 120.0 mg/kg/injection, schedule: Q01DX005 (oral), vehicle: saline with Tween-80 103 % of control | dose: 150.0 mg/kg/injection, schedule: Q04DX002 (ip), vehicle: Klucel (hydroxypropylcellulose) (HPC) 111 % of control | dose: 200.0 mg/kg/injection, schedule: Q01DX009 (ip), vehicle: Klucel (hydroxypropylcellulose) (HPC) 92 % of control and 96 % of control | [5] 105 % of control | dose: 200.0 mg/kg/injection, schedule: Q01DX009 (oral), vehicle: saline with Tween-80 100 % of control | dose: 200.0 mg/kg/injection, schedule: Q04DX002 (ip), vehicle: Klucel (hydroxypropylcellulose) (HPC) 105 % of control | dose: 200.0 mg/kg/injection, schedule: Q04DX003 (ip), vehicle: Klucel (hydroxypropylcellulose) (HPC) 119 % of control | [1] 109 % of control | dose: 240.0 mg/kg/injection, schedule: Q01DX005 (iv), vehicle: saline with Tween-80 106 % of control | dose: 240.0 mg/kg/injection, schedule: Q01DX005 (oral), vehicle: saline with Tween-80 102 % of control | dose: 300.0 mg/kg/injection, schedule: Q04DX002 (ip), vehicle: Klucel (hydroxypropylcellulose) (HPC) 115 % of control | dose: 400.0 mg/kg/injection, schedule: Q01DX009 (oral), vehicle: saline with Tween-80 103 % of control | dose: 400.0 mg/kg/injection, schedule: Q04DX002 (ip), vehicle: Klucel (hydroxypropylcellulose) (HPC) 117 % of control | dose: 480.0 mg/kg/injection, schedule: Q01DX005 (oral), vehicle: saline with Tween-80 107 % of control | dose: 600.0 mg/kg/injection, schedule: Q04DX002 (ip), vehicle: Klucel (hydroxypropylcellulose) (HPC) 117 % of control | dose: 800.0 mg/kg/injection, schedule: Q01DX009 (oral), vehicle: saline with Tween-80 103 % of control | dose: 800.0 mg/kg/injection, schedule: Q04DX002 (ip), vehicle: Klucel (hydroxypropylcellulose) (HPC) 108 % of control | dose: 800.0 mg/kg/injection, schedule: Q04DX003 (ip), vehicle: Klucel (hydroxypropylcellulose) (HPC) 102 % of control | dose: 1200.0 mg/kg/injection, schedule: Q04DX002 (ip), vehicle: Klucel (hydroxypropylcellulose) (HPC) 118 % of control | dose: 1600.0 mg/kg/injection, schedule: Q01DX009 (oral), vehicle: saline with Tween-80 88 % of control

C[Si](C)(C)S[Si](C)(C)C
inactive: dose: 50.0 mg/kg/injection, schedule: Q01DX009 (ip), vehicle: Klucel (hydroxypropylcellulose) (HPC) 106 % of control | dose: 100.0 mg/kg/injection, schedule: Q01DX009 (ip), vehicle: Klucel (hydroxypropylcellulose) (HPC) 100 % of control

Cc1cc(NS(=O)(=O)c2ccc(N=Nc3cc(N=Nc4ccc(S(=O)(=O)Nc5cc(C)nc(C)n5)cc4)c4c(NC(=O)C(Cl)Cl)cccc4c3OC(=O)C(Cl)Cl)cc2)nc(C)n1 (tested in a mixture with another compound)
inactive: dose: 12.5 mg/kg/injection, schedule: Q01DX009 (ip), vehicle: saline with Tween-80 113 % of control | [2] 117 % of control | [3] 106 % of control [middle of 4 runs] | dose: 50.0 mg/kg/injection, schedule: Q01DX009 (ip), vehicle: saline 108 % of control [middle of 4 runs] | [4] 99 % of control and 105 % of control and 107 % of control | dose: 100.0 mg/kg/injection, schedule: Q01DX009 (ip), vehicle: saline 111 % of control and 115 % of control and 118 % of control | [5] 91 % of control and 95 % of control | dose: 200.0 mg/kg/injection, schedule: Q01DX009 (ip), vehicle: saline 99 % of control

CC(=O)SSC(C)(C)C
inactive: dose: 50.0 mg/kg/injection, schedule: Q01DX005 (ip), vehicle: saline 105 % of control | dose: 100.0 mg/kg/injection, schedule: Q01DX005 (ip), vehicle: saline 114 % of control | dose: 200.0 mg/kg/injection, schedule: Q01DX005 (ip), vehicle: saline 103 % of control

O=C(O)CCCc1cccc2c1CCCC2
inactive: dose: 50.0 mg/kg/injection, schedule: Q01DX005 (ip), vehicle: Klucel (hydroxypropylcellulose) (HPC) 102 % of control | dose: 100.0 mg/kg/injection, schedule: Q01DX005 (ip), vehicle: Klucel (hydroxypropylcellulose) (HPC) 100 % of control | dose: 200.0 mg/kg/injection, schedule: Q01DX005 (ip), vehicle: Klucel (hydroxypropylcellulose) (HPC) 100 % of control

CC(C)CCN(CCC(C)C)CC(O)c1cc2c(c3ccccc13)CCCC2 (centres undefined)
inactive: dose: 12.5 mg/kg/injection, schedule: Q01DX005 (ip), vehicle: saline with Tween-80 96 % of control | dose: 25.0 mg/kg/injection, schedule: Q01DX005 (ip), vehicle: saline with Tween-80 93 % of control | dose: 50.0 mg/kg/injection, schedule: Q01DX005 (ip), vehicle: saline with Tween-80 103 % of control and 93 % of control | dose: 100.0 mg/kg/injection, schedule: Q01DX005 (ip), vehicle: saline with Tween-80 113 % of control | dose: 200.0 mg/kg/injection, schedule: Q01DX005 (ip), vehicle: saline with Tween-80 108 % of control
